Measurements from ChEMBL document CHEMBL1687695, “Thermodynamic and Structural Effects of Macrocyclization as a Constraining Method in Protein-Ligand Interactions” (ACS Med Chem Lett, 2010).
Numbered stars: 1 amine (or outer) side, 2 acyl side, 3 side chain; on linkers, the order of the positions; unused ones are H or OH. Square brackets hold non-standard residues; d marks the D form. Peptide text beside a SMILES is read from it. * marks the point of attachment. pY = N[C@@H](Cc1ccc(OP(=O)(O)O)cc1)C(=O)O; NH(CH2)9CO = O=C(CCCCCCCCCN[*:1])[*:2]; Nonanoyl = CCCCCCCCC(=O)*; Hexanoyl = CCCCCC(=O)*; Ahp = NCCCCCCC(=O)O

Assay: Association constant Ka of the compound
Assay type: physicochemical

In order of falling Ka:
1. CC(C)[C@@H]1NC(=O)[C@H](Cc2ccc(OP(=O)(O)O)cc2)NC(=O)CCCCCCCCCNC(=O)CNC(=O)[C@H](CC(N)=O)NC1=O (cyclo(G[NH(CH2)9CO][pY]VN))  8.5 ×10⁵ /M
2. CCCCCCCCC(=O)N[C@@H](Cc1ccc(OP(=O)(O)O)cc1)C(=O)N[C@H](C(=O)N[C@@H](CC(N)=O)C(=O)NCC(=O)NC)C(C)C (Nonanoyl-[pY]VNG-NHMe)  5.7 ×10⁵ /M
3. CCCCCC(=O)N[C@@H](Cc1ccc(OP(=O)(O)O)cc1)C(=O)N[C@H](C(=O)N[C@@H](CC(N)=O)C(=O)NCC(=O)NC)C(C)C (Hexanoyl-[pY]VNG-NHMe)  4.1 ×10⁵ /M

In order of falling Ka:
1. CCCCCC(=O)N[C@@H](Cc1ccc(OP(=O)(O)O)cc1)C(=O)N[C@H](C(=O)N[C@@H](CC(N)=O)C(=O)N[C@H](C(=O)N1CCC[C@H]1C(=O)NC)C(C)C)C(C)C (Hexanoyl-[pY]VNVP-NHMe)  6.5 ×10⁶ /M
2. CCCCCC(=O)N[C@@H](Cc1ccc(OP(=O)(O)O)cc1)C(=O)N[C@H](C(=O)N[C@@H](CC(N)=O)C(=O)N[C@H](C(=O)NC)C(C)C)C(C)C (Hexanoyl-[pY]VNV-NHMe)  2.3 ×10⁶ /M
3. CC(C)[C@@H]1NC(=O)[C@H](CC(N)=O)NC(=O)[C@H](C(C)C)NC(=O)[C@H](Cc2ccc(OP(=O)(O)O)cc2)NC(=O)CCCCCCNC1=O (cyclo([Ahp][pY]VNV))  2.3 ×10⁶ /M

Compound CC(C)[C@@H]1NC(=O)[C@H](Cc2ccc(OP(=O)(O)O)cc2)NC(=O)CCCCCCNC(=O)CNC(=O)[C@H](CC(N)=O)NC1=O (cyclo([Ahp][pY]VNG)) has a Ka of 4.7 ×10⁴ /M.

Compound CC(C)[C@@H]1NC(=O)[C@H](Cc2ccc(OP(=O)(O)O)cc2)NC(=O)CCCCCCNC(=O)[C@@H]2CCCN2C(=O)[C@H](C(C)C)NC(=O)[C@H](CC(N)=O)NC1=O (cyclo([Ahp][pY]VNVP)) has a Ka of 1 ×10⁷ /M.
